According to US10639298B2 (Biohaven Pharmaceutical Holding Company Ltd., priority 2015, dated 2020):

Experiments:
[1] = Rat pharmacokinetic studies of prodrug and released riluzole (IV or oral); type: in vivo, Sprague-Dawley rats
Method: Rat Pharmacokinetic Studies of the Compounds of the Disclosure:
Blood samples were collected at pre-determined time points including a 0 h time point and usually between 7 and 8 additional time points not exceeding a 24 h period.
Plasma samples were extracted and analyzed using the methods described in Plasma Sample Extraction and Analysis. All data are expressed as ng/mL of the free base. Samples that were below the limit of quantification (0.5 ng/mL) were not used in the calculation of averages.
Pharmacokinetic parameters were calculated from the time course of the plasmaconcentrations. Pharmacokinetic parameters were determined with Phoenix Winnonlin (v6.3) software using a non-compartmental model. The maximum plasma concentration (Cmax) and time to the maximum plasma concentration (Tmax) of the compound of the disclosure were observed from the data. The area under the concentration-time curve (AUC) of the compound of the disclosure was calculated using the trapezoidal formula with calculation to the last quantifiable data point, and to infinity if applicable. Plasma half-life (t½) was calculated from 0.693/slope of the terminal elimination phase. Mean residence time, MRT, was calculated by dividing the area under the moment curve (AUMC) by the AUC. Any samples below the limit of quantitation (0.5 ng/mL) were treated as zero for pharmacokinetic data analysis.
Plasma Sample Extraction and Analysis:
Analytical stock solutions (1.00 mg/mL of the free compound of the disclosure) were prepared in DMSO. Standards were prepared in diluted matrix containing 1 part 10% formic acid and 9 parts Sprague-Dawley rat plasma containing sodium heparin as the anticoagulant (pre-diluted with 1 part of 0.5M citric acid and 9 parts whole blood). Working solutions were prepared in 50:50 acetonitrile:water. Working solutions were then added to plasma to make calibration standards to final concentrations of 1000, 500, 100, 50, 10, 5, 1, and 0.5 ng/mL. Standards contained both the test article and riluzole. Standards were treated identically to the study samples.
Plasma samples were extracted via acetonitrile precipitation on a Tomtec Quadra 96-Model 320 liquid handling system in a 96-well plate format.

Melanoma C8161 cells = experiment: Inhibition of human melanoma cell xenograft growth; type: in vivo, nude mice; conditions: P<0.01 (t test)
Method: Melanoma C8161 cells were inoculated s.c. into nude mice at […]. […] Mice were treated every day for 21 days, and tumor sizes were measured twice weekly with a Vernier caliper.

[2] = fasted male Sprague Dawley rats, IV, prodrug dose 2.8 mg/Kg
[3] = fasted male Sprague Dawley rats, PO 14.6 mg/kg

In the case of `CN(CC(=O)Nc1nc2ccc(OC(F)(F)F)cc2s1)C(=O)CNC(C)(C)C` [Example 125, 2-(tert-butylamino)-N-methyl-N-(2-oxo-2-((6-(trifluoromethoxy)benzo[d]thiazol-2-yl)amino)ethyl)acetamide], the “Compound of the disclosure AUClast” value [1, 2] is reported as 1526 ng·h/mL, the “Compound of the disclosure Cl” value [1, 2] is reported as 29.7 mL/min/kg and the “Compound of the disclosure Vss” value [1, 2] is reported as 3.57 L/kg. The “Compound of the disclosure t1/2” value ([1]; fasted male Sprague Dawley rats, IV, prodrug dose 2.8 mg/Kg, 2.8 mg/kg) was 1.92 h, the “Prodrug AUClast (Mean)” value [1, 3] was 2259 ng·h/mL and the “Prodrug Cmax (Mean)” value [1, 3] was 213 ng/mL. For the same molecule, the “Prodrug t1/2 (Mean)” value [1, 3] was 3.8 h, the “Prodrug tmax (Mean)” value [1, 3] was 1.80 h and the “Half life on conversion to Riluzole” value ([1]; intravenous administration) was “moderate to long half life”. For the same molecule, the “Half life on conversion to Riluzole” value ([1]; oral administration) was “long half life”, the “Oral bioavailability” value ([1]; oral administration) was “high oral bioavailability” and the AUC(0-t) ([1]; rat, plasma, fasted male Sprague Dawley rats, IV, prodrug dose 2.8 mg/Kg, read-out: Compound of the disclosure AUClast) was 1600 ng·h/mL. For the same molecule, the clearance ([1]; rat, plasma, fasted male Sprague Dawley rats, IV, prodrug dose 2.8 mg/Kg, read-out: Compound of the disclosure Cl (converted)) was 27.8 mL/min/kg, the Vd ([1]; rat, plasma, fasted male Sprague Dawley rats, IV, prodrug dose 2.8 mg/Kg, read-out: Compound of the disclosure Vss) was 3.51 L/kg and the “Tumor volume vs untreated or vehicle-treated controls” value (Melanoma C8161 cells; 4.9 mg/kg (threefold lower in molar terms) p.o. gavage every day for 21 days) was “significant reduction in tumor volume”. For the same molecule, the “Tumor volume vs untreated or vehicle-treated controls” value (Melanoma C8161 cells; 14.6 mg/kg (equimolar to riluzole) p.o. gavage every day for 21 days) was “significant reduction in tumor volume”.
